Laboratory results as given in the supplement of paper PMC10307832.

How the values were obtained:
Assay in all cases: relative viability (nuclei count vs DMSO), 5 days (fraction); higher = more cells survive
[1] = compound: CC(O)(CS(=O)(=O)c1ccc(F)cc1)C(=O)Nc1ccc(C#N)c(C(F)(F)F)c1 [Bicalutamide] + O=C(CCCCCCC(=O)Nc1ccccc1)NO [Vorinostat] (partner 1 µM)
Summary of the method: (§1)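 Relative viability equals treated-well nuclei counts divided by vehicle-well nuclei counts. Counts came from 4× images of lung cancer cell lines grown in 1536-well plates for 5 days after pin-tool dosing on the day after seeding. Dosing used one drug alone or a fixed anchor-drug dose plus five library-drug doses (not always all listed) in √10 steps, and values are medians of duplicate plates.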

[2] = compound: CC(O)(CS(=O)(=O)c1ccc(F)cc1)C(=O)Nc1ccc(C#N)c(C(F)(F)F)c1 [Bicalutamide] + Nc1ncn([C@H]2C[C@H](O)[C@@H](CO)O2)c(=O)n1 [Decitabine] (partner 2 µM)
Summary of the method: as §1

[3] = compound: C(C(=O)C(=O)O)Br [Bromopyruvate] + CC(=O)c1c(C)c2cnc(Nc3ccc(N4CCNCC4)cn3)nc2n(C2CCCC2)c1=O [Palbociclib] (partner 0.5 µM)
Summary of the method: as §1

[4] = compound: CC(O)(CS(=O)(=O)c1ccc(F)cc1)C(=O)Nc1ccc(C#N)c(C(F)(F)F)c1 [Bicalutamide] + N=C(N)NC(=N)NCCc1ccccc1 [Phenformin] (partner 250 µM)
Summary of the method: as §1

Which relative viability ([1]; first compound 0.08 µM) does the source give for UMC-11 here?
Its relative viability is 0.436.

And the relative viability ([1]; first compound 0.253 µM)?
The relative viability was 0.387.

What about the relative viability ([1]; first compound 0.8 µM) of the same cell line?
Its relative viability is 0.403.

What about the relative viability ([1]; first compound 2.53 µM) of the same cell line?
The relative viability was 0.264.

And the relative viability ([2]; first compound 0.08 µM)?
The relative viability was 0.535.

And the relative viability ([2]; first compound 0.253 µM)?
Its relative viability is 0.507.

And the relative viability ([2]; first compound 0.8 µM)?
Its relative viability is 0.623.

And the relative viability ([2]; first compound 2.53 µM)?
The relative viability was 0.555.

What about the relative viability ([3]; first compound 1 µM) of the same cell line?
Its relative viability is 0.343.

And the relative viability ([3]; first compound 3.162 µM)?
The relative viability was 0.353.

What about the relative viability ([3]; first compound 10 µM) of the same cell line?
The relative viability was 0.324.

And the relative viability ([3]; first compound 31.62 µM)?
The relative viability was 0.367.

And the relative viability ([3]; first compound 100 µM)?
The relative viability was 0.356.

And the relative viability ([4]; first compound 0.08 µM)?
The relative viability was 0.35.

What about the relative viability ([4]; first compound 0.253 µM) of the same cell line?
Its relative viability is 0.319.

What about the relative viability ([4]; first compound 0.8 µM) of the same cell line?
The relative viability was 0.372.

What about the relative viability ([4]; first compound 2.53 µM) of the same cell line?
Its relative viability is 0.302.
